Like-named read-outs stand apart in the source and are kept apart here.
How the values were obtained:
MDA-MB231 cells = assay: Clonogenic cell survival / cell growth inhibition assay, MDA-MB231; type: cell-based, human; settings: for IC50: 48 h treatment, colonies counted after additional 10 days, read-out: IC50, drug concentration required for 50% growth inhibition; for toxicity to cells (result in words): MDA-MB231 cells, clonogenic assay
Method: (§1) The following human breast cancer cell lines were used in these studies: (a) Triple-positive: BT474, MCF7 and T47D, (b) Triple-negative: MDA-MB231 and MDA-MB468. Cells were grown in the following medium at 37° C. under a humidified atmosphere of 5% CO2: DMEM (BT474 cells), RPMI (MCF7 and T47D cells) and MEM (MDA-MB231 and MDA-MB468 cells). For each cell line, the medium was supplemented with 10% fetal bovine serum (Hyclone, Logan, Utah) 100 U/ml of penicillin, and 100 μg/ml of streptomycin.
(§2) Cells were trypsinized and a single cell suspension was prepared. Cells were plated at a density of 5×10^2-1×10^3 cells in 60 mm tissue culture plates. After the attachment, cells were treated with different concentrations of biisoquinolines 1a-d for 48 h. After the treatment, medium containing drug was removed and supplemented with fresh medium. Cells were allowed to grow into colonies for additional 10 days. Colonies were fixed, stained with 0.3% (w/v) methylene blue, and excess of the dye was removed after washing with PBS. Colonies containing more than fifty cells were counted and the IC50 values, i.e., drug concentrations required for 50% growth inhibition of these cell lines were determined as described in our previous studies. [Balusu, R.; Jaiswal, A. S.; Armas, M. L.; Kundu, C. N.; Bloom L, B.; Narayan S. Biochemistry 2007, 46, 13961; Jaiswal, A, S.; Banerjee, S.; Panda, H.; Bulkini, C. D.; Izumi, T.; Sarkar, F. H.; Ostrov, D. A.; Narayan, S. Mol. Cancer Res. 2009, 7, 1973] The IC50 of each compound was determined from the survival curve using the SigmaPlot-10.0 software program.
6,6′,7,7′-tetramethoxy biisoquinoline-imidazolium 1a, as well as its precursor compounds, bisamide 3a, and diimine 4a, were tested for the growth inhibitory effect on MDA-MB-231 cells by using the clonogenic cell survival assay [Balusu, R.; Jaiswal, A. S.; Armas, M. L.; Kundu, C. N.; Bloom L, B.; Narayan S. Biochemistry 2007, 46, 13961; Jaiswal, A, S.; Banerjee, S.; Panda, H.; Bulkin, C. D.; Izumi, T.; Sarkar, F. H.; Ostrov, D. A.; Narayan, S. Mol. Cancer Res. 2009, 7, 1973]. […] Then, three other methoxylated biisoquinoline-imidazolium compounds (1b-d) were tested to probe the optimal methoxy substitution pattern.

BT474 cells = assay: Clonogenic cell growth inhibition assay, BT474; type: cell-based; settings: Homo sapiens, BT-474; BT474 triple-positive breast cancer cells; 48 h treatment, colonies counted after additional 10 days; read-out: IC50, drug concentration required for 50% growth inhibition
Method: as §1, §2

MCF7 cells = assay: Clonogenic cell growth inhibition assay, MCF7; type: cell-based, human; settings: for IC50: Homo sapiens, MCF7 triple-positive breast cancer cells, 48 h treatment, colonies counted after additional 10 days, read-out: IC50, drug concentration required for 50% growth inhibition
Method: as §1, §2

T47D cells = assay: Clonogenic cell growth inhibition assay, T47D; type: cell-based, human; settings: for IC50: Homo sapiens, T47D triple-positive breast cancer cells, 48 h treatment, colonies counted after additional 10 days, read-out: IC50, drug concentration required for 50% growth inhibition
Method: as §1, §2

MDA-MB468 cells = assay: Clonogenic cell growth inhibition assay, MDA-MB468; type: cell-based; settings: Homo sapiens, MDA-MB-468; MDA-MB468 triple-negative breast cancer cells; 48 h treatment, colonies counted after additional 10 days; read-out: IC50, drug concentration required for 50% growth inhibition
Method: as §1, §2

[1] = Homo sapiens, MDA-MB-231, MDA-MB231 triple-negative breast cancer cells
[2] = MDA-MB231 triple-negative breast cancer cells

Row | Structure (SMILES) | IC50 (BT474 cells) | IC50 (MCF7 cells) | IC50 (T47D cells) | IC50 (MDA-MB468 cells) | fold higher IC50 than compound 1c (MCF7 cells; MCF7 cells, IC50 of noscapine relative to IC50 of 1c) | IC50 (MDA-MB231 cells; [1]) | IC50 (MDA-MB231 cells; [2]) | toxicity to cells (result in words) (MDA-MB231 cells) | sensitivity of cells to the compound (result in words) (MCF7 cells; MCF7 cells, clonogenic assay) | sensitivity of cells to the compound (result in words) (T47D cells; T47D cells, clonogenic assay) | fold higher IC50 than compound 1c (MDA-MB231 cells; MDA-MB-231 cells, IC50 of noscapine relative to IC50 of 1c)
1 | COc1ccc2c(c1)CCn1c[n+]3c(c1-2)-c1ccc(OC)cc1CC3 [1c, 3,3′-dimethoxy-5,6,8,9-tetrahydro-6a,7a-diazadibenzo[c,g]fluorenium]chloride] | 0.3 µM | 1.3 µM | 1 µM | 1.8 µM |  | 4.7 µM | 2.4 µM |  |  |  | 
2 | COc1cc2c(c(OC)c1OC)CCn1c[n+]3c(c1-2)-c1cc(OC)c(OC)c(OC)c1CC3.[Cl-] [1d, 2,2′,3,3′,4,4′-hexamethoxy-5,6,8,9-tetrahydro-6a,7a-diazadibenzo[c,g]fluorenium]chloride] |  |  |  |  |  |  |  | did not show any toxicity |  |  | 
3 | COc1cc2c(cc1OC)C(C1=NCCc3cc(OC)c(OC)cc31)=NCC2 [4a, 6,6′,7,7′-tetramethoxy-3,3′,4,4′-tetrahydro-1,1′-biisoquinoline] |  |  |  |  |  |  |  | non-toxic |  |  | 

Further lines, with some results ahead:

Row | IC50 (BT474 cells) | IC50 (MCF7 cells) | IC50 (T47D cells) | IC50 (MDA-MB468 cells) | fold higher IC50 than compound 1c (MCF7 cells; MCF7 cells, IC50 of noscapine relative to IC50 of 1c) | Structure (SMILES) | IC50 (MDA-MB231 cells; [1]) | IC50 (MDA-MB231 cells; [2]) | toxicity to cells (result in words) (MDA-MB231 cells) | sensitivity of cells to the compound (result in words) (MCF7 cells; MCF7 cells, clonogenic assay) | sensitivity of cells to the compound (result in words) (T47D cells; T47D cells, clonogenic assay) | fold higher IC50 than compound 1c (MDA-MB231 cells; MDA-MB-231 cells, IC50 of noscapine relative to IC50 of 1c)
4 | 3.1 µM | 35 µM | 34 µM | 2.6 µM |  | COc1cc2c(cc1OC)-c1c3[n+](cn1CC2)CCc1cc(OC)c(OC)cc1-3 [1a, 2,2′,3,3′-tetramethoxy-5,6,8,9-tetrahydro-6a,7a-diazadibenzo[c,g]fluorenium]chloride] | 19 µM | 20.8 µM |  |  |  | 
5 | 0.7 µM | 7.9 µM | 13.5 µM | 2.1 µM |  | COc1ccc2c(c1OC)CCn1c[n+]3c(c1-2)-c1ccc(OC)c(OC)c1CC3 [1b, 3,3′,4,4′-tetramethoxy-5,6,8,9-tetrahydro-6a,7a-diazadibenzo[c,g]fluorenium]chloride] | 18.2 µM | 14.2 µM |  |  |  | 
6 | 34.1 µM |  |  | 35.4 µM |  | COc1cccc(CCNC(=O)C(=O)NCCc2cccc(OC)c2OC)c1OC [3b, N^1,N^2-bis(2,3-dimethoxyphenethyl)oxalamide] |  |  | did not show any cytotoxicity | resistant | resistant | 
7 |  | 57 µM |  |  | 44 folds | COc1ccc2c(c1OC)C(=O)O[C@@H]2[C@H]1c2c(cc3c(c2OC)OCO3)CCN1C [noscapine, reference compound] | 64 µM |  |  |  |  | 16 folds

Source: patent publication US9914733B2, “Biisoquinoline compounds and methods of treatment” (UNIVERSITY OF FLORIDA RESEARCH FOUNDATION, priority 2014, dated 2018)
